molecular target: T1, POLγA:A467T (Homo sapiens, UniProt P54098, A467T); assay: DNA polymerization assay, POLγA:A467T mutant; assay type: biochemical; details: A467T AC50, stimulation of polymerase activity, primed M13mp18 ssDNA, 37° C. 2 hours
T1 sequence (P54098 1-1239 A467T): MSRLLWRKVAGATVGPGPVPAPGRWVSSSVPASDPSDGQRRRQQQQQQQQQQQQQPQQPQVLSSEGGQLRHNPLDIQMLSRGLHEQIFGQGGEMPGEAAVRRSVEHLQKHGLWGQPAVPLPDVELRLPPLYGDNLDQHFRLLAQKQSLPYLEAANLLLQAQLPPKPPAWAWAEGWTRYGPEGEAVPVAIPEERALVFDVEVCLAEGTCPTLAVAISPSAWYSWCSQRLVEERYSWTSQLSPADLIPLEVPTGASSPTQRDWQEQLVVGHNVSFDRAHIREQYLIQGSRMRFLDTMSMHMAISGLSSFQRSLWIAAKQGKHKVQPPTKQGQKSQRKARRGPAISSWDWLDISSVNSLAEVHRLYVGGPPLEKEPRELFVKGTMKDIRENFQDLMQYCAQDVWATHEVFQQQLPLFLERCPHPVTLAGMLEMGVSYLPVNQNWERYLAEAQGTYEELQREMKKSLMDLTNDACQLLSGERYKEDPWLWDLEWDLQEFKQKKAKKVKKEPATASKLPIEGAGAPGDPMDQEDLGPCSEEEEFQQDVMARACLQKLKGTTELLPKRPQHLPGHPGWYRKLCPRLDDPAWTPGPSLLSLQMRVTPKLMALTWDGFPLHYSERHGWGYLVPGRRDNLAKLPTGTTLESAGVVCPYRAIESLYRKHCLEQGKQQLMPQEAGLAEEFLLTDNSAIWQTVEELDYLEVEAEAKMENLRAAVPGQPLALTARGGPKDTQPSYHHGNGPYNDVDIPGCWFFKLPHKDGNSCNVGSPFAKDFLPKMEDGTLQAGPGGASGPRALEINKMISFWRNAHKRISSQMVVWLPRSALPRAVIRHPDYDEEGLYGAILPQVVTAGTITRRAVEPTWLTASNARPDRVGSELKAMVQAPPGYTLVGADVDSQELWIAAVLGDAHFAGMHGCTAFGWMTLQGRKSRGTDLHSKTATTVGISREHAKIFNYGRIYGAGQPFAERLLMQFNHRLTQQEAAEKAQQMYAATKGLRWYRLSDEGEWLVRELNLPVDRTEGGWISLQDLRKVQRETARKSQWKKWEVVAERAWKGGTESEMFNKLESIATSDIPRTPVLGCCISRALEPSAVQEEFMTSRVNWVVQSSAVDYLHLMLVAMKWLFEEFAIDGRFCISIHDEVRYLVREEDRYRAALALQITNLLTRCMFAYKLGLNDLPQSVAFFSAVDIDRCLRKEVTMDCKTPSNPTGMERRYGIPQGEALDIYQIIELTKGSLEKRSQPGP
T1 sequence (Q9UHN1 1-485 partner): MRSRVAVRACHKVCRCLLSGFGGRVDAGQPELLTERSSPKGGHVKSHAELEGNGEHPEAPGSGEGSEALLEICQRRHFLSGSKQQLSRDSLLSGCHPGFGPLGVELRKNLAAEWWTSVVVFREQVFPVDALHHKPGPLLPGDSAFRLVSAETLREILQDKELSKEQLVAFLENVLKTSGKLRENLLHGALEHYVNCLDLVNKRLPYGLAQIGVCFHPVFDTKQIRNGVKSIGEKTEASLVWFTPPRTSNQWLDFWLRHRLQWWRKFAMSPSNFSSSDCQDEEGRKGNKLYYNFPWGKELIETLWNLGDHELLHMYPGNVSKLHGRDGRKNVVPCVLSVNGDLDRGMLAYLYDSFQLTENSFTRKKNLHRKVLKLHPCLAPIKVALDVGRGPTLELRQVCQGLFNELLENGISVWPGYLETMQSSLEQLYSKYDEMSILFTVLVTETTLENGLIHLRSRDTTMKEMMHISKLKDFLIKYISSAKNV
Method: DNA Polymerization Assay to Monitor Effects on Human Wildtype POLγ and Four Disease-Causing Mutant Variants of Human POLγ.
The ability of small molecules to stimulate the polymerase activity of POLγ was analyzed in a quantitative fluorescence SYBR Green I assay with fluorescence intensity (FI) readout.
In the presence of dNTPs, wild type human POLγ and mutant derivatives thereof were incubated with single-stranded, circular M13mp18 ssDNA hybridized to a short DNA oligonucleotide that functions as a primer for initiation of DNA synthesis. POLγ and mutant derivatives thereof will extend the primer and use the M13mp18 molecule as a template to synthesize long stretches of double-stranded DNA. SYBR Green I, which is a double-stranded DNA-binding dye, was used to quantify formation of double-stranded DNA in the reaction. When bound to double-stranded DNA, SYBR Green I fluorescence increases by up to 100-fold.
The assay was performed in the 384-well plate format. Upon addition of compounds, changes in double-stranded DNA synthesis activity can be monitored by following effects on fluorescent intensity.
The reactions also contained the accessory POLγB subunit, and the human mitochondrial single-stranded DNA binding protein (mtSSB).
The DNA template mixture used in the assay contained 0.5 nM primed M13 mp18 ssDNA, 400 nM mtSSB, 0.1 mM Tris-HCl (pH 8.0), 0.1 mM dNTP, 10 mM MgCl2, 0.1 mg/mL BSA, 1 mM TCEP solution, and 0.02% Triton X-100. The DNA template mixture for the wild type protein contained either 100 μM dNTP, 1 μM dNTP, or 0.1 μM dNTP, designated in Table 2 as 100 μM, 1 μM, and 0.1 μM, respectfully.
Microplates with compounds (0.1 μL in each well) to be tested in the assay were prepared from 10 mM compound stocks in 100% DMSO, and equal amounts of DMSO without any compound were added to positive and negative control wells.
The protein mixture was dispensed (5 μL into each well) into compound plates and incubated at 37° C. for 15 minutes. After incubation, 5 μL of the DNA template mixture was dispensed into each well. The plates were then incubated at 37° C. for 2 hours.
During incubation, a combined stop buffer and detection reagent solution was prepared. The buffer contained 25 mM EDTA (pH 8.0), 0.02% Triton X-100, and SYBR Green I [Invitrogen] diluted 10,000× (for fluorescent readout). EDTA will stop the enzymatic reaction by chelating magnesium ions.

Row | AC50 | Compound
1 | > 100 µM | Cc1cc(S(=O)(=O)Nc2noc(-c3ccccc3)n2)c(C)cc1Cl [Example 142, 4-chloro-2,5-dimethyl-N-(5-phenyl-1,2,4-oxadiazol-3-yl)benzenesulfonamide]

same assay, conditions: stimulation of polymerase activity, primed M13mp18 ssDNA, 37° C. 2 hours; read-out: A467T AC50

Row | Compound | AC50
2 | Cc1cc(F)ccc1S(=O)(=O)Nc1csc(-c2ccccc2)n1 [Example 124, 4-fluoro-2-methyl-N-(2-phenylthiazol-4-yl)benzenesulfonamide] | > 100 µM
3 | Cc1ccc(C)c(S(=O)(=O)Nc2cccc(C(=O)NCC3CC3)c2)c1 [Example 4, N-(cyclopropylmethyl)-3-((2,5-dimethylphenyl)sulfonamido)benzamide] | 52 µM
4 | Cc1cc(S(=O)(=O)Nc2cccc(-c3ncco3)c2)c(C)cc1Cl [Example 17, 4-chloro-2,5-dimethyl-N-(3-(oxazol-2-yl)phenyl)benzenesulfonamide] | 6 µM
5 | O=S(=O)(Nc1csc(-c2ccccc2)n1)c1ccc(F)cc1Cl [Example 126, 2-chloro-4-fluoro-N-(2-phenylthiazol-4-yl)benzenesulfonamide] | 32 µM
6 | Cc1ccc(C)c(S(=O)(=O)Nc2cccc(C(=O)N3CCCC[C@H]3C)c2)c1 [Example 5, (R)-2,5-dimethyl-N-(3-(2-methylpiperidine-1-carbonyl)phenyl)benzenesulfonamide] | 33 µM
7 | O=S(=O)(Nc1csc(-c2ccccc2)n1)c1ccc(Cl)cc1Cl [Example 138, 2,4-dichloro-N-(2-phenylthiazol-4-yl)benzenesulfonamide] | > 100 µM
8 | Cc1cc(S(=O)(=O)Nc2cccc(-c3nccn3C)c2)c(C)cc1Cl [Example 19, 4-chloro-2,5-dimethyl-N-(3-(1-methyl-1H-imidazol-2-yl)phenyl)benzenesulfonamide] | 11 µM
9 | O=S(=O)(Nc1csc(-c2ccccc2)n1)c1ccccn1 [Example 139, N-(2-phenylthiazol-4-yl)pyridine-2-sulfonamide] | > 100 µM
10 | Cc1cc(S(=O)(=O)Nc2nsc(-c3ccccc3)n2)c(C)cc1Cl [Example 131, 4-chloro-2,5-dimethyl-N-(5-phenyl-1,2,4-thiadiazol-3-yl)benzenesulfonamide] | > 100 µM
11 | Cc1ccc(C)c(S(=O)(=O)Nc2csc(-c3ccccc3)n2)c1 [Example 134, 2,5-dimethyl-N-(2-phenylthiazol-4-yl)benzenesulfonamide] | 3 µM
12 | O=S(=O)(Nc1csc(-c2ccccc2)n1)c1ccc(C(F)(F)F)cc1 [Example 127, N-(2-phenylthiazol-4-yl)-4-(trifluoromethyl)benzenesulfonamide] | > 100 µM
13 | Cc1cc(S(=O)(=O)Nc2csc(-c3ccccc3)n2)c(F)cc1Cl [Example 146, 4-chloro-2-fluoro-5-methyl-N-(2-phenylthiazol-4-yl)benzenesulfonamide] | > 100 µM
14 | C[C@@H]1CCCN1C(=O)c1cccc(NS(=O)(=O)c2ccc(C(F)(F)F)cc2)c1 [Example 118, (R)-N-(3-(2-methylpyrrolidine-1-carbonyl)phenyl)-4-(trifluoromethyl)benzenesulfonamide] | > 100 µM
15 | Cc1cc(S(=O)(=O)Nc2cccc(C(=O)N3CCC[C@H]3C)c2)ccc1Cl [Example 117, (R)-4-chloro-3-methyl-N-(3-(2-methylpyrrolidine-1-carbonyl)phenyl)benzenesulfonamide] | > 100 µM
16 | O=S(=O)(Nc1csc(-c2ccccc2)n1)c1ccc2c(c1)CCO2 [Example 152, N-(2-phenylthiazol-4-yl)-2,3-dihydrobenzofuran-5-sulfonamide] | > 100 µM

Further lines, results first:

Row | AC50 | Compound
17 | > 100 µM | CNC(=O)c1cnc(-c2cccc(NS(=O)(=O)c3cc(C)c(Cl)cc3C)c2)s1 [Example 93, 2-(3-((4-chloro-2,5-dimethylphenyl)sulfonamido)phenyl)-N-methylthiazole-5-carboxamide]
18 | > 100 µM | Cc1cc(S(=O)(=O)N[C@H]2CCCN(C(=O)[C@H]3CCCN3C)C2)c(C)cc1Cl [Example 95, 4-chloro-2,5-dimethyl-N-((S)-1-(methyl-D-prolyl)piperidin-3-yl)benzenesulfonamide]
19 | 45 µM | Cc1cc(S(=O)(=O)Nc2cccc(C(=O)N(C)C)c2)c(C)cc1Cl [Example 12, 3-((4-chloro-2,5-dimethylphenyl)sulfonamido)-N,N-dimethylbenzamide]
20 | > 100 µM | Cc1cc(S(=O)(=O)N[C@@H]2CCCN(C(=O)[C@H]3CCCN3C)C2)c(C)cc1Cl [Example 100, 4-chloro-2,5-dimethyl-N-((R)-1-(methyl-D-prolyl)piperidin-3-yl)benzenesulfonamide]
21 | > 100 µM | Cc1cc(S(=O)(=O)N[C@@H]2CCCN(C(=O)c3ccccc3)C2)c(C)cc1Cl [Example 150, (R)-N-(1-benzoylpiperidin-3-yl)-4-chloro-2,5-dimethylbenzenesulfonamide]
22 | 12 µM | Cc1cc(S(=O)(=O)Nc2cccc(C(=O)N3CCC[C@H]3C)c2)c(C)cc1Cl [Example 10, (R)-4-chloro-2,5-dimethyl-N-(3-(2-methylpyrrolidine-1-carbonyl)phenyl)benzenesulfonamide]
23 | > 100 µM | Cc1cc(S(=O)(=O)Nc2cccc(C(=O)N3C[C@H](C)[C@@H](N)C3)c2)c(C)cc1Cl [Example 108, N-(3-((3R,4S)-3-amino-4-methylpyrrolidine-1-carbonyl)phenyl)-4-chloro-2,5-dimethylbenzenesulfonamide]
24 | > 100 µM | Cc1cc(S(=O)(=O)N[C@@H]2CCCN(C(=O)[C@@H]3CCCN3C)C2)c(C)cc1Cl [Example 104, 4-chloro-2,5-dimethyl-N-((R)-1-(methyl-L-prolyl)piperidin-3-yl)benzenesulfonamide]
25 | > 100 µM | Cc1cc(S(=O)(=O)Nc2cccc(C(=O)N(CC(N)=O)C3CCCC3)c2)c(C)cc1Cl [Example 113, N-(2-amino-2-oxoethyl)-3-((4-chloro-2,5-dimethylphenyl)sulfonamido)-N-cyclopentylbenzamide]
